Tested on: duplex DNA between NP-1 and NP-2
Test: Naked-eye color change of NP-1/NP-2 nanoassembly at specific temperatures
Assay type: binding
Conditions: for color of nanoassembly: NP-1 and NP-2 1.5 nM each, intercalator 5 μM; for trend of intercalator binding affinities for DNA: from the color change with temperature
From the text: This method also utilizes the aggregation-induced, red-to-blue color change associated with 13 nm Au nanoparticles. Gold nanoparticles are functionalized with one of two complementary thiol-modified oligonucleotide strands and are denoted NP-1 and NP-2. When NP-1 and NP-2 are combined, they form aggregates through a reversible DNA hybridization process. This process results in a red-to-blue color change due to a red-shifting and dampening of the nanoparticle plasmon resonance. Increasing the temperature above the melting temperature of the DNA reverses the process, and the particles dissociate with a concomitant blue-to-red color change. […] This increased stability is reflected by an increase in melting temperature. Note that the shape and breadth of the transition is almost independent of the intercalator (FIG. 4). Therefore, by monitoring the blue-to-red color transition of hybridized oligonucleotide-modified Au nanoparticles in the presence of different compounds, the relative strength of intercalator binding can be determined with the naked-eye.
In general, assay methods that can detect drug candidates by the naked eye, without resorting to any instrumentation, are convenient, and for this reason, an assay that could seem for drug candidates based on DNA intercalation would be of great interest. […] As the temperature increases, the color change from blue to red occurs at specific temperatures. At 25° C. all eight cells (one control and seven intercalators) appear light blue/purple in color. At 30° C., the nanoassemblies containing the control and weak intercalators turn red in color leaving only the nanoassemblies containing DAPI, DNR, and EB as blue/purple.

SMILES	color of nanoassembly (30° C.)	color of nanoassembly (40° C.)	trend of intercalator binding affinities for DNA
N=C(N)c1ccc(-c2cc3ccc(C(=N)N)cc3[nH]2)cc1 [DAPI, 4′,6-diamidino-2-phenylindole]	blue/purple	turn red except the nanoassembly containing DAPI	DAPI>DNR˜EB>other intercalators
COc1cccc2c1C(=O)c1c(O)c3c(c(O)c1C2=O)C[C@@](O)(C(C)=O)C[C@@H]3O[C@H]1C[C@H](N)[C@H](O)[C@H](C)O1 [DNR, daunorubicin]	blue/purple	–	DAPI>DNR˜EB>other intercalators

Reference: US20090221095A1, “Colorimetric Screening of DNA Binding/Intercalating Agents with Gold Nanoparticle Probes” (NORTHWESTERN UNIVERSITY, priority 2005, published 2009)
